The record followed here is ChEMBL document CHEMBL3877268, “Development of resveratrol-curcumin hybrids as potential therapeutic agents for inflammatory lung diseases” (Eur J Med Chem, 2017).

As usually defined, the IC50 is the concentration that inhibits the measured activity by half.

Molecules are shown by their SMILES. Activity calls are given as the source filed them. The rule behind the calls is not given here.

Data set [1] in a line: Cytotoxicity against human HL-7702 cells assessed as viable cells at 10 uM measured after 24 hrs by MTT assay. It counts as toxicity, cell-based. To be noted: l02, 24 h. Background: Tetrazolium assays rely on reduction of a dye to a coloured formazan, in cell work by metabolically active cells.
Data set [2] concerns RAW264.7. Put plainly: Anti-inflammatory activity in mouse RAW264.7 cells assessed as inhibition of LPS-induced IL-6 expression pretreated for 30 mins followed by LPS challenge measured after 24 hrs by ELISA method. The format is functional, cell-based. A general note: An ELISA detects its analyte on a solid surface through an enzyme-linked reagent.
Data set [3] can be described thus: Chemical stability of the compound in phosphate buffer at pH 7.4 at 20 uM measured every 5 mins for 25 mins by UV-visible absorption spectra analysis. It counts as physicochemical. To be noted: pH 7.4, 25 min.
The test system of data set [4] is RAW264.7. Put plainly: Anti-inflammatory activity in mouse RAW264.7 cells assessed as inhibition of LPS-induced TNF-alpha expression at […] pretreated for 30 mins followed by LPS challenge measured after 24 hrs by ELISA method. It counts as functional, cell-based.
Data set [5] deals with RAW264.7. Put plainly: Anti-inflammatory activity in mouse RAW264.7 cells assessed as inhibition of LPS-induced IL-6 expression at […] pretreated for 30 mins followed by LPS challenge measured after 24 hrs by ELISA method. It counts as functional, cell-based.
Data set [6] concerns Mus musculus. Put plainly: Anti-inflammatory activity in LPS-induced C57BL/6 mouse acute lung injury model assessed as reduction in total number of cells in bronchoalveolar lavage fluid at 5 mg/kg, ig pretreated for 7 days followed LPS challenge measured after 6 hrs by hemocytometer. The format is functional, organism-based.
Data set [7] has as its system Mus musculus. Put plainly: Anti-inflammatory activity in LPS-induced C57BL/6 mouse acute lung injury model assessed as reduction in number of neutrophils in bronchoalveolar lavage fluid at 5 mg/kg, ig pretreated for 7 days followed LPS challenge measured after 6 hrs by Wright-Giemsa staining based assay. It counts as functional, organism-based.
The subject of data set [8] is Mus musculus. The data set is described as follows: Anti-inflammatory activity in LPS-induced C57BL/6 mouse acute lung injury model assessed as reduction in lung wet/dry ratio at 5 mg/kg, ig pretreated for 7 days followed LPS challenge measured after 6 hrs. It counts as functional, organism-based.
The test system of data set [9] is Mus musculus. Put plainly: Anti-inflammatory activity in LPS-induced C57BL/6 mouse acute lung injury model assessed as reduction in TNF-alpha level in bronchoalveolar lavage fluid at 5 mg/kg, ig pretreated for 7 days followed LPS challenge measured after 6 hrs by ELISA method. The format is functional, organism-based.
Data set [10] has as its system Peritoneal macrophage. Put plainly: Anti-inflammatory activity in mouse peritoneal macrophage assessed as inhibition of LPS-induced IL-12 mRNA expression at 10 uM pretreated for 30 mins followed by LPS challenge measured after 6 hrs by q-PCR analysis. It counts as functional.
Data set [11] deals with Peritoneal macrophage. Put plainly: Anti-inflammatory activity in mouse peritoneal macrophage assessed as inhibition of LPS-induced TNF-alpha mRNA expression at 10 uM pretreated for 30 mins followed by LPS challenge measured after 6 hrs by q-PCR analysis. The format is functional.
Data set [12] concerns Mus musculus. The data set is described as follows: Anti-inflammatory activity in LPS-induced C57BL/6 mouse acute lung injury model assessed as reduction in IL-6 level in serum at 5 mg/kg, ig pretreated for 7 days followed LPS challenge measured after 6 hrs by ELISA method. The format is functional, organism-based.
The test system of data set [13] is Mus musculus. Put plainly: Anti-inflammatory activity in LPS-induced C57BL/6 mouse acute lung injury model assessed as reduction in TNF-alpha level in serum at 5 mg/kg, ig pretreated for 7 days followed LPS challenge measured after 6 hrs by ELISA method. It counts as functional, organism-based.
In data set [14] the test system is Peritoneal macrophage. The data set is described as follows: Anti-inflammatory activity in mouse peritoneal macrophage assessed as inhibition of LPS-induced IL-6 expression at 10 uM pretreated for 30 mins followed by LPS challenge measured after 6 hrs by q-PCR analysis. The format is functional.
For data set [15], the system named is Peritoneal macrophage. Put plainly: Anti-inflammatory activity in mouse peritoneal macrophage assessed as inhibition of LPS-induced IL-33 mRNA expression at 10 uM pretreated for 30 mins followed by LPS challenge measured after 6 hrs by q-PCR analysis. It counts as functional.
The test system of data set [16] is Mus musculus. Put plainly: Anti-inflammatory activity in LPS-induced C57BL/6 mouse acute lung injury model assessed as reduction in IL-6 level in bronchoalveolar lavage fluid at 5 mg/kg, ig pretreated for 7 days followed LPS challenge measured after 6 hrs by ELISA method. The format is functional, organism-based.
For data set [17], the system named is Mus musculus. Put plainly: Anti-inflammatory activity in LPS-induced C57BL/6 mouse acute lung injury model assessed as reduction in airspace inflammation in lung tissue at 5 mg/kg, ig pretreated for 7 days followed LPS challenge measured after 6 hrs by hematoxylin and eosin staining based light microscopy. The format is functional, organism-based.
Data set [18] relates to Mus musculus. The data set is described as follows: Anti-inflammatory activity in LPS-induced C57BL/6 mouse acute lung injury model assessed as reduction in total protein concentration at 5 mg/kg, ig pretreated for 7 days followed LPS challenge measured after 6 hrs by BCA protein assay. It counts as functional, organism-based.
In data set [19] the test system is Mus musculus. Put plainly: Anti-inflammatory activity in LPS-induced C57BL/6 mouse acute lung injury model assessed as reduction in CD68-positive macrophage level in lung tissue at 5 mg/kg, ig pretreated for 7 days followed LPS challenge measured after 6 hrs by […] light microscopy. The format is functional, organism-based.

Turning to `COc1ccc(/C=C/c2cc(OC)cc(OC)c2/C=C/C(=O)/C=C/c2ccc(C)cc2C)cc1`, the Activity result in [1] is recorded as “Non-Toxic”.

Take `COc1ccc(/C=C/c2cc(OC)cc(OC)c2/C=C/C(=O)/C=C/c2ccc(O)c(Br)c2)cc1`: in data set [1], the Activity entry was “Non-Toxic”.

In the case of `COc1ccc(/C=C/c2cc(OC)cc(OC)c2/C=C/C(=O)/C=C/c2ccc(OCCCN(C)C)cc2)cc1`, in the data set on RAW264.7 [2], the 50% inhibitory concentration (IC50) came to 2.15 µM and the inhibition result was “Dose-dependent effect”. The Stability entry in data set [3] is reported as “Stable”. The inhibition entry with RAW264.7 [4] is “Active”. Also, the inhibition entry with RAW264.7 [5] was “Active”. In data set [1], the Activity result was “Non-Toxic”.

As for `COc1ccc(/C=C/c2cc(OC)cc(OC)c2/C=C/C(=O)/C=C/c2ccccc2C(F)(F)F)cc1`, the inhibition result with RAW264.7 [4] and with RAW264.7 [5] was “Active” in each case. Also, the Activity result in [1] was “Non-Toxic”.

`COc1ccc(/C=C/c2cc(OC)cc(OC)c2/C=C/C(=O)/C=C/c2ccc(O)c(OC)c2)cc1`: the Activity result in [1] was “Non-Toxic”.

Regarding `COc1ccc(/C=C/c2cc(OC)cc(OC)c2/C=C/C(=O)/C=C/c2cccc(OC)c2OC)cc1`, the outcome in the data set with Mus musculus [6], with Mus musculus [7], with Mus musculus [8], in the data set with Mus musculus [9], in the data set on Mus musculus [12] and in the data set on Mus musculus [13] was Active. The result in the data set with Mus musculus [16], in the data set with Mus musculus [17], with Mus musculus [18] and with Mus musculus [19] was Active. Besides, the IC50 in the data set on RAW264.7 [2] is 2.48 µM. Besides, the inhibition entry in the data set on RAW264.7 [2] is “Dose-dependent effect”. In addition, the inhibition entry with Peritoneal macrophage [10], in the data set on Peritoneal macrophage [11], in the data set on Peritoneal macrophage [14], with RAW264.7 [4], in the data set on Peritoneal macrophage [15] and in the data set with RAW264.7 [5] was “Active” throughout. Besides, in data set [3], the Stability result is listed as “Stable”. In data set [1], the Activity result is “Non-Toxic”.

Take `COc1ccc(/C=C/c2cc(OC)cc(OC)c2/C=C/C(=O)/C=C/c2cc(C(F)(F)F)ccc2C(F)(F)F)cc1`: in data set [1], the Activity result is “Non-Toxic”.

Turning to `COc1ccc(/C=C/c2cc(OC)cc(OC)c2/C=C/C(=O)/C=C/c2ccccc2)cc1`, in the data set on RAW264.7 [2], the IC50 is 3.9 µM and the inhibition entry is “Dose-dependent effect”. Moreover, the Stability entry in data set [3] is listed as “Unstable”. Moreover, in the data set with RAW264.7 [4], the inhibition result is “Active”. Also, the inhibition result in the data set on RAW264.7 [5] is “Active”. Besides, the Activity result in data set [1] is recorded as “Non-Toxic”.

As to `COc1ccc(/C=C/c2cc(OC)cc(OC)c2/C=C/C(=O)/C=C/c2ccc(OC)cc2OC)cc1`, in the data set with RAW264.7 [2], the half-maximal inhibitory concentration (IC50) came to 3.03 µM and the inhibition entry is “Dose-dependent effect”. Moreover, in data set [3], the Stability result was “Stable”. In the data set with RAW264.7 [4], the inhibition result was “Active”. The inhibition entry with RAW264.7 [5] was “Active”. Moreover, in data set [1], the Activity entry is reported as “Non-Toxic”.

For `COc1ccc(/C=C/c2cc(OC)cc(OC)c2/C=C/C(=O)/C=C/c2ccc(OC)c(Br)c2)cc1`, the inhibition entry in the data set with RAW264.7 [5] was “Active”. Also, the Activity result in [1] was “Non-Toxic”.

Regarding `COc1ccc(/C=C/c2cc(OC)cc(OC)c2/C=C/C(=O)/C=C/c2cccc(C(F)(F)F)c2)cc1`, the inhibition result in the data set on RAW264.7 [5] was “Active”. For the same compound, in [1], the Activity entry is on record as “Non-Toxic”.

As for `COc1ccc(/C=C/c2cc(OC)cc(OC)c2/C=C/C(=O)/C=C/c2ccc3c(c2OC)OCO3)cc1`, the Activity entry in data set [1] is “Non-Toxic”.

As for `COc1ccc(/C=C/c2cc(OC)cc(OC)c2/C=C/C(=O)/C=C/c2ccc(C(C)(C)C)cc2)cc1`, the Activity result in data set [1] is on record as “Non-Toxic”.

Take `C=CCOc1ccc(/C=C/C(=O)/C=C/c2c(/C=C/c3ccc(OC)cc3)cc(OC)cc2OC)cc1`: in data set [1], the Activity entry was “Non-Toxic”.

With `COc1ccc(/C=C/c2cc(OC)cc(OC)c2/C=C/C(=O)/C=C/c2ccccc2Cl)cc1`, the Activity entry in data set [1] was “Non-Toxic”.

For `CCOc1ccc(/C=C/C(=O)/C=C/c2c(/C=C/c3ccc(OC)cc3)cc(OC)cc2OC)cc1`, in data set [1], the Activity entry is recorded as “Non-Toxic”.

On to `Oc1ccc(/C=C/c2cc(O)cc(O)c2)cc1` [RESVERATROL], for which, in data set [3], the Stability result is reported as “Unstable”.

With `COc1ccc(/C=C/c2cc(OC)cc(OC)c2/C=C/C(=O)/C=C/c2ccc(C(F)(F)F)cc2)cc1`, the Activity result in data set [1] is listed as “Non-Toxic”.

In the case of `COc1ccc(/C=C/c2cc(OC)cc(OC)c2/C=C/C(=O)/C=C/c2ccccc2OC)cc1`, the Activity entry in data set [1] was “Non-Toxic”.

As for `COc1ccc(/C=C/c2cc(OC)cc(OC)c2/C=C/C(=O)/C=C/c2ccc(C)s2)cc1`, in the data set on RAW264.7 [2], the IC50 turned out to be 4.33 µM and the inhibition entry was “Dose-dependent effect”. Besides, in [3], the Stability result is on record as “Unstable”. Also, the inhibition result in the data set on RAW264.7 [4] was “Active”. Further, the inhibition entry in the data set with RAW264.7 [5] is “Active”. In data set [1], the Activity result was “Non-Toxic”.

As to `COc1ccc(/C=C/c2cc(OC)cc(OC)c2/C=C/C(=O)/C=C/c2cccc3ccccc23)cc1`, the Activity result in [1] is listed as “Non-Toxic”.

Consider `COc1ccc(/C=C/c2cc(OC)cc(OC)c2/C=C/C(=O)/C=C/c2ccc(N3CCN(C)CC3)cc2)cc1`, for which the Activity result in data set [1] was “Non-Toxic”.

Take `COc1ccc(/C=C/c2cc(OC)cc(OC)c2/C=C/C(=O)/C=C/c2ccccc2Br)cc1`: the Activity result in data set [1] is “Non-Toxic”.

Turning to `COc1ccc(/C=C/c2cc(OC)cc(OC)c2/C=C/C(=O)/C=C/c2c(OC)cc(OC)cc2OC)cc1`, the inhibition result in the data set on RAW264.7 [5] was “Active”. In [1], the Activity entry is on record as “Non-Toxic”.

With `CCN(CC)c1ccc(/C=C/C(=O)/C=C/c2c(/C=C/c3ccc(OC)cc3)cc(OC)cc2OC)cc1`, in the data set with RAW264.7 [5], the inhibition entry is “Active”. Moreover, the Activity result in data set [1] is reported as “Non-Toxic”.

Turning to `COc1ccc(/C=C/c2cc(OC)cc(OC)c2/C=C/C(=O)/C=C/c2ccc(OC(C)(C)C)cc2)cc1`, the Activity result in data set [1] is listed as “Non-Toxic”.
